From patent publication US20070093520A1, “Method of treatment of diarrhea-predominant irritable bowel syndrome in a subject” (priority 2005, published 2007)

System: diarrhea-predominant IBS subjects
Test: 3007 Study: open-label 52-week safety study, adverse events and withdrawals
[1] = Placebo/Cilansetron 2 mg, N=279
[2] = Placebo/Cilansetron 2 mg, N=279, % of appropriate gender
[3] = Placebo/Cilansetron 2 mg, gender-specific

## Cc1nccn1C[C@H]1CCc2c(c3cccc4c3n2CCC4)C1=O [cilansetron, (R)-(−)-4,5,6,8,9,10-hexahydro-10-[(2-methyl-1H-imidazol-1-yl)methyl]-11H-pyrido-[3,2,1-jk]-carbazol-11-one]
[1]
  TEAE leading to permanent discontinuation: Urticaria NOS: 1 (<1%) n (%)
  TEAE leading to permanent discontinuation: Vertigo: 0 n (%)
  TEAE leading to permanent discontinuation: Visual Acuity Reduced: 1 (<1%) n (%)
  TEAE leading to permanent discontinuation: Vomiting NOS: 0 n (%)
  TEAE leading to permanent discontinuation: White Blood Cells Urine Positive: 0 n (%)
  Total Number of Subjects with at Least One TEAE Leading to Discontinuation of Study Medication: 50 (18%) n (%)
[2]
  TEAE leading to permanent discontinuation: Benign Ovarian Tumour*: 1 (<1%) n (%)
  TEAE leading to permanent discontinuation: Breast Cancer NOS*: 2 (1%) n (%)
  TEAE leading to permanent discontinuation: Ovarian Cancer NOS*: 0 n (%)
  TEAE leading to permanent discontinuation: Ovarian Cystadenofibroma*: 1 (<1%) n (%)
  TEAE leading to permanent discontinuation: Pregnancy NOS*: 0 n (%)
[3]
  TEAE: Female Reproductive Tract Infections*: 0 n (%)
  TEAE: Prostate Examination Abnormal*: 0 n (%)
  TEAE: Smear Cervix Abnormal*: 0 n (%)
  TEAE: Vaginal Candidiasis*: 1 (<1%) n (%)
  TEAE: Vaginitis Bacterial NOS*: 0 n (%)
  TEAE: Vaginitis*: 0 n (%)
  TEAE: Vaginosis Fungal NOS*: 1 (<1%) n (%)
Studies 3006 and 3007
  potential complications of constipation: two
Study 3007
  constipation episodes reported as SAEs: None
  constipation that led to dose reduction: seven
  deaths: No deaths
  longest duration of a constipation episode: 189 days
  mean longest duration of a constipation episode: 10.4 days
  median longest duration of a constipation episode: four
  subjects mildly bothered by the constipation: 8%
  subjects moderately bothered by the constipation: 7%
  subjects reporting only one constipation episode: 15%
  subjects with a constipation episode that lasted longer than 30 days: Thirteen
  subjects with an SAE reported as probably related to study medication (colitis ischemic): One
  subjects with treatment-emergent SAEs reported as unlikely related to study medication: five
  treatment-emergent SAE: angina pectoris: two
  treatment-emergent SAE: breast cancer NOS: two
  treatment-emergent SAE: chest pain: two
  treatment-emergent SAEs of cardiac disorders: four
  treatment-emergent rectal hemorrhage: Eight
Study 3007, 2 mg TID over 52 weeks
  overall safety, tolerability and QOL finding: generally safe, well-tolerated, and improved QOL
Study 3007, 18 to 40 years
  TEAE incidence: abdominal pain NOS: 8%
  TEAE incidence: constipation: 19%
  TEAE incidence: flatulence, bloating and distension: 8%
  TEAE incidence: headache NOS: 7%
  TEAE incidence: lower respiratory tract and lung infections: 4%
  TEAE incidence: nausea and vomiting symptoms: 9%
  TEAE incidence: sinusitis NOS: 9%
Study 3007, 41 to 64 years
  TEAE incidence: abdominal pain NOS: 5%
  TEAE incidence: constipation: 23%
  TEAE incidence: flatulence, bloating and distension: 5%
  TEAE incidence: headache NOS: 6%
  TEAE incidence: lower respiratory tract and lung infections: 6%
  TEAE incidence: nausea and vomiting symptoms: 6%
  TEAE incidence: sinusitis NOS: 7%
Study 3007, 65 years or older
  TEAE incidence: abdominal pain NOS: 12%
  TEAE incidence: constipation: 37%
  TEAE incidence: flatulence, bloating and distension: 12%
  TEAE incidence: headache NOS: 1%
  TEAE incidence: lower respiratory tract and lung infections: 1%
  TEAE incidence: nausea and vomiting symptoms: 1%
  TEAE incidence: sinusitis NOS: 3%
Study 3007, C/C
  SAE: Abdominal Pain Upper: 1 (<1%) n (%)
  SAE: Adenomyosis*: 1 (<1%) n (%)
  SAE: Angina Pectoris: 2 (<1%) n (%)
  SAE: Appendicitis: 1 (<1%) n (%)
  SAE: Asthma NOS: 0 n (%)
  SAE: Benign Ovarian Tumour*: 0 n (%)
  SAE: Bladder Prolapse: 0 n (%)
  SAE: Bone Neoplasm Malignant: 1 (<1%) n (%)
  SAE: Breast Cancer NOS*: 0 n (%)
  SAE: Bronchopneumonia NOS: 0 n (%)
  SAE: Calculus Ureteric: 1 (<1%) n (%)
  SAE: Cardiac Disorders: 3 (1%) n (%)
  SAE: Chest Pain: 1 (<1%) n (%)
  SAE: Cholelithiasis: 1 (<1%) n (%)
  SAE: Colitis Ischaemic: 0 n (%)
  SAE: Depression: 0 n (%)
  SAE: Endometriosis*: 1 (<1%) n (%)
  SAE: Fibroma NOS: 0 n (%)
  SAE: Food Allergy: 0 n (%)
  SAE: Gastritis NOS: 1 (<1%) n (%)
  SAE: Gastroenteritis NOS: 1 (<1%) n (%)
  SAE: Gastrointestinal Disorders: 3 (1%) n (%)
  SAE: General Disorders and Administration Site Conditions: 1 (<1%) n (%)
  SAE: Hallucination NOS: 0 n (%)
  SAE: Hallucination, Auditory: 0 n (%)
  SAE: Heat Exhaustion: 1 (<1%) n (%)
